Assay: main transition temperature (TM) of phosphatidylcholines
Assay type: physicochemical
Conditions: phosphatidylcholine; acyl chains on positions 1 and 2 of glycero-3-phosphocholine or 1 and 3 of glycero-2-phosphocholine
Protocol: The abovementioned preferred composition of the liposome according to the invention can be tailor-made for other temperature ranges by choice of components with the main transition temperature suitable in each case. In table 1, the main transition temperatures (TM) of phosphatidylcholines whose main transition temperatures lie in the range from 0 to 80° C. are indicated.

Structure (SMILES) | TM (main transition temperature)
CCCCCCCCCCCCCCCCCCCC(=O)OCC(COP(=O)([O-])OCC[N+](C)(C)C)OC(=O)CCCCCCCCCCCCCCCCCCC (stereo not drawn) [1,2-diarachinoyl-] | 66 °C
CCCCCCCCCCCCCCCCCCCCCCCC(=O)OCC(COP(=O)([O-])OCC[N+](C)(C)C)OC(=O)CCCCCCCCCCCCCCCCCCCCCCC (stereo not drawn) [1,2-dilignoceroyl-] | 80 °C
CCCCCCCCCCCCCC(=O)OCC(COP(=O)([O-])OCC[N+](C)(C)C)OC(=O)CCCCCCCCCCCCC (stereo not drawn) [1,2-dimyristoyl-] | 23 °C
CCCCCCCCCCCCCCCC(=O)OC[C@H](COP(=O)([O-])OCC[N+](C)(C)C)OC(=O)CCCCCCCCCCCCCCC [1,2-dipalmitoyl-, 1,2-dipalmitoyl-sn-glycero-3-phosphocholine] | 41 °C
CCCCCCCCCCCCCCCCCC(=O)OC[C@H](COP(=O)([O-])OCC[N+](C)(C)C)OC(=O)CCCCCCCCCCCCCCCCC [1,2-distearoyl-, 1,2-distearoyl-sn-glycero-3-phosphocholine] | 56 °C
CCCCCCCC/C=C\CCCCCCCC(=O)OC(COC(=O)CCCCCCCCCCCCCCCCCCCCC)COP(=O)([O-])OCC[N+](C)(C)C (stereo not drawn) [1-behenoyl-2-oleoyl-] | 14 °C
CCCCCCCCCCCCCCCC(=O)OCC(COP(=O)([O-])OCC[N+](C)(C)C)OC(=O)CCCCCCCCCCC (stereo not drawn) [1-palmitoyl-2-lauroyl-] | 11 °C
CCCCCCCCCCCCCCCC(=O)OCC(COP(=O)([O-])OCC[N+](C)(C)C)OC(=O)CCCCCCCCCCCCC (stereo not drawn) [1-palmitoyl-2-myristoyl-] | 27 °C
CCCCCCCC/C=C\CCCCCCCC(=O)OC(COC(=O)CCCCCCCCCCCCCCC)COP(=O)([O-])OCC[N+](C)(C)C (stereo not drawn) [1-palmitoyl-2-oleoyl-] | 5 °C
CCCCCCCCCCCCCCCCCC(=O)OCC(COP(=O)([O-])OCC[N+](C)(C)C)OC(=O)CCCCCCCCCCC (stereo not drawn) [1-stearoyl-2-lauroyl-] | 17 °C
CCCCCCCCCCCCCCCCCC(=O)OCC(COP(=O)([O-])OCC[N+](C)(C)C)OC(=O)CCCCCCCCCCCCC (stereo not drawn) [1-stearoyl-2-myristoyl-] | 33 °C
CCCCCCCC/C=C\CCCCCCCC(=O)OC(COC(=O)CCCCCCCCCCCCCCCCC)COP(=O)([O-])OCC[N+](C)(C)C (stereo not drawn) [1-stearoyl-2-oleoyl-] | 7 °C
